Laboratory results: ChEMBL document CHEMBL4813931, “Boesenmaxane Diterpenoids from Boesenbergia maxwellii” (J Nat Prod, 2021)
Calls of active or inactive are those of the source. The calls are words filed in the database; no cut-off is given here.

How the values were obtained:
[1] = tested on: P388; experiment: Cytotoxicity against mouse P388 cells measured after 48 hrs by SRB assay; format: functional, cell-based
[2] = tested on: KB; experiment: Cytotoxicity against human KB cells measured after 48 hrs by SRB assay; format: functional, cell-based
[3] = tested on: HT-29; experiment: Cytotoxicity against human HT-29 cells measured after 48 hrs by SRB assay; format: functional, cell-based
[4] = tested on: MCF7; experiment: Cytotoxicity against human MCF7 cells measured after 48 hrs by SRB assay; format: functional, cell-based
[5] = tested on: A549; experiment: Cytotoxicity against human A549 cells measured after 48 hrs by SRB assay; format: functional, cell-based
[6] = tested on: ASK; experiment: Cytotoxicity against rat ASK cells measured after 48 hrs by SRB assay; format: functional, cell-based
[7] = tested on: T-24; experiment: Cytotoxicity against human T-24 cells measured after 48 hrs by SRB assay; format: functional, cell-based
[8] = tested on: HEK293; experiment: Cytotoxicity against human HEK293 cells measured after 48 hrs by SRB assay; format: cell-based; conditions: hek293, 48 h
[9] = target: Human immunodeficiency virus type 1 reverse transcriptase (Human immunodeficiency virus 1) (UniProt Q72547); experiment: Inhibition of HIV-1 reverse transcriptase using poly(rA)/oligo(dT)1 as template/primer incubated for 1 hr by pico-green reagent based fluorescence analysis
[10] = Cytotoxicity against human 1A2 cells measured after 1 hr by XTT assay; format: cell-based; conditions: 1A2, 1 h
[11] = Selectivity index, ratio of IC50 for human 1A2 cells to EC50 for Human calicivirus strain MC99 infected in human 1A2 cells; format: toxicity, cell-based; conditions: read-out: Ratio IC50/EC50
[12] = tested on: Staphylococcus aureus; experiment: Antibacterial activity against Staphylococcus aureus assessed as bacterial growth inhibition measured after 16 to 18 hrs by Kirby-Bauer disk diffusion method; format: functional, organism-based; conditions: time 16-18 hrs
[13] = tested on: Escherichia coli; experiment: Antibacterial activity against Escherichia coli assessed as bacterial growth inhibition measured after 16 to 18 hrs by Kirby-Bauer disk diffusion method; format: functional, organism-based; conditions: time 16-18 hrs
[14] = tested on: Enterococcus faecalis; experiment: Antibacterial activity against Enterococcus faecalis assessed as bacterial growth inhibition measured after 16 to 18 hrs by Kirby-Bauer disk diffusion method; format: functional, organism-based; conditions: time 16-18 hrs
[15] = tested on: Bacillus cereus; experiment: Antibacterial activity against Bacillus cereus assessed as bacterial growth inhibition measured after 16 to 18 hrs by Kirby-Bauer disk diffusion method; format: functional, organism-based; conditions: time 16-18 hrs
[16] = tested on: Candida albicans; experiment: Antifungal activity against Candida albicans assessed as fungal growth inhibition measured after 16 to 18 hrs by Kirby-Bauer disk diffusion method; format: functional, organism-based; conditions: time 16-18 hrs

| inhibition [9] | Structure (SMILES) | Activity [1] | Activity [2] | Activity [3] | Activity [4] | Activity [5] | Activity [6] | Activity [7] | Activity [8] | IC50 [10] [µM] | selectivity ratio [11] | inhibition [12] | inhibition [13] | inhibition [14] | inhibition [15] | inhibition [16] |
| --- | --- | --- | --- | --- | --- | --- | --- | --- | --- | --- | --- | --- | --- | --- | --- | --- |
| inactive | CC1(C)CCC[C@]2(C)C3=C(C[C@H](C4=CCOC4=O)C3)C(=O)C[C@@H]12 | inactive | inactive | inactive | inactive | inactive | inactive | inactive | Non-Toxic | > 398 | > 7.2 | inactive | inactive | inactive | inactive | inactive |
|  | CC1(C)CCC[C@]2(C)[C@H]3C[C@@H](C4=CCOC4=O)CC3=CC[C@@H]12 | inactive | inactive | inactive | inactive | inactive | inactive | inactive | Non-Toxic | 381 |  | inactive | inactive | inactive | inactive | inactive |
| inactive | CC1(C)C(=O)CC[C@]2(C)C3=C(C[C@H](C4=CCOC4=O)C3)C(=O)C[C@@H]12 | inactive | inactive | inactive | inactive | inactive | inactive | inactive | Non-Toxic |  |  | inactive | inactive | inactive | inactive | inactive |
